Results published in patent publication US5786324A, “Synthetic peptides with bactericidal activity and endotoxin neutralizing activity for gram negative bacteria and methods for their use” (priority 1994, dated 1998).
Read-outs that look alike come from different tables or passages of the source. Positions of bridges follow the written chain, without caps; N, C: chain ends. Residues, ends and D or L forms follow the SMILES beside them.

Tests used:
[1] = test system: Pseudomonas aeruginosa type 1; assay type: cell-based; conditions: pH 5.6; for Effective Dose Bactericidal pH 5.6 P. aeruginosa Molar Concentration: Table 5
Description: Bactericidal activity can be evaluated against a variety of bacteria such as Pseudomonas spp including aeruginosa and P. cepacia, E. coli B, and Staphylococcus aureus. The preferred organism is P. aeruginosa. Bactericidal activity is determined by identifying the effective dose for killing as the molar concentration of the peptide which results in at least a 60% killing of the bacteria, as determined by standard methods. Preferably, the peptide has an effective dose at a concentration of about 1×10^-4 M to about 1×10^-10 M, and more preferably 1×10^-7 M to 1×10^-9M . […] The effective dose for bactericidal activity of B/PI is seen at about […] . Bactericidal activity can also be determined by calculating a lethal dose 50 (LD50) using standard methods. The LD50 is that amount of peptide or protein that kills 50% of the bacteria when measured using standard dose response methods. A bactericidal peptide preferably has an LD50 of about 10^-4 M to about 10^-9 M , more preferably about 10^-7 to 10^-9 M .
The synthetically produced peptides were assayed for bactericidal activity against Pseudomonas aeruginosa, type 1, P. cepacia ATCC 25608, E. coli B, and Staphylococcus aureus 502A by standard methods.
Pseudomonas aeruginosa type 1 is a clinical isolate maintained in the laboratory since 1972. The isolate remains a smooth strain and was serotyped by the scheme of Homma. Homma, Jpn. J. Exp. Med., 46:329 (1976). A rough strain E. coli B and S. aureus 502A were obtained from Paul Quie, University of Minnesota. The characteristics of the S. aureus strain have been described in Shinefield et al., Amer. J. Dis. Chil., 105:646 (1963). Pseudomonas cepacia ATCC 25608 was purchased from the American Type Culture Collection in 1980. S. aureus and E. coli were maintained on nutrient agar plates and the Pseudomonas strains were maintained on blood agar plates.
Pyrogen-free solutions were used throughout this assay and all methods which follow. Log phase bacteria were prepared from a culture in brain heart infusion broth as previously described except that bacteria were washed and resuspended in saline with adjustment to an optical density at 650 nm which would yield 3×10^8 CFU/ml. Bacteria were then diluted 1:10 in 0.08M citrate phosphate buffer, pH 5.6 or pH 7.0, for use in the assay. S. aureus rapidly lost viability in the pH 5.6 buffer and was studied only at pH 7.0. Bactericidal activity was determined by dose response and where an LD50 is indicated, it was determined by linear regression.

[2] = test system: E. coli 055: B5 LPS; assay: Limulus amoebocyte lysate assay, neutralization of endotoxin; assay type: biochemical; conditions: Table 8; LAL
Text: The peptide selected can also have endotoxin neutralizing activity. […] Endotoxin neutralizing activity can also be measured by calculating an inhibitory dose 50 […] using standard does response methods. An inhibitory dose 50 is that amount of peptide that can inhibit 50% of the activity of endotoxin. Endotoxin activity can also be measured by determining the amount of release of tumor necrosis factor alpha (TNFα) from a macrophage cell line or by evaluating the symptoms of shock in animals. Peptides preferably neutralized endotoxin at a molar concentration of about 1×10^-4 M to about 10^-8 M , more preferably about 10^-5 M to about 10^-6 M .
The ability of synthetic peptides to neutralize endotoxin was detected with the E-TOXATE kit manufactured by Sigma Chemicals, St. Louis, Mo. […] Peptide was incubated with LPS at room temperature for 10 minutes in 100 μl of a 1:2 dilution of pyrogen-free saline, pH 6.4. The reaction was started by addition of 100 μl of amoebocyte lysate and the final volume was 200 μl.
^a The dose of peptide required to inhibit clotting of LAL by 100%.
Each tube contained 0.04 endotoxin units of E. coli LPS.

Compound: kkkwfrlakq [Peptide 21]
- % Killing of 5 × 10^6 Bacteria ([1]; P. aeruginosa, 1.5 × 10^-5 M): 71%
- Effective Dose Bactericidal pH 5.6 P. aeruginosa Molar Concentration [1]: 1.5 × 10^-5 M
- bacterial killing activity compared with parent peptide (in words) ([1]; P. aeruginosa): retained biological activity
- Effective Dose Endotoxin Neutralization (Molar Concentration) [2]: -- (not active at concentrations of 4.5 × 10^-4 M or less)

Compound: CC[C@H](C)[C@H](NC(=O)[C@@H](N)CCCCN)C(=O)N[C@@H](CO)C(=O)NCC(=O)N[C@@H](CCCCN)C(=O)N[C@@H](Cc1c[nH]c2ccccc12)C(=O)N[C@@H](CCCCN)C(=O)N[C@@H](C)C(=O)N[C@@H](CCC(N)=O)C(=O)N[C@@H](CCCCN)C(=O)N[C@@H](CCCNC(=N)N)C(=O)N[C@@H](Cc1ccccc1)C(=O)N[C@@H](CC(C)C)C(=O)N[C@@H](CCCCN)C(=O)O [Peptide 8a, kisgkwkaqkrflk]
- % Killing of 5 × 10^6 Bacteria ([1]; type 1, 6.0e-6 M): 79%

Compound: kwkfkqralk [Peptide 26]
- % Killing of 5 × 10^6 Bacteria ([1]; P. aeruginosa, 1.5 × 10^-5 M): 61%
- Effective Dose Bactericidal pH 5.6 P. aeruginosa Molar Concentration [1]: 1.5 × 10^-5 M
- Effective Dose Endotoxin Neutralization (Molar Concentration) [2]: 300 µM

Compound: cnanikisgkwkaqkrflkmsgnfdlsic [Peptide 23]
- % Killing of 5 × 10^6 Bacteria ([1]; P. aeruginosa, 3 × 10^-7 M): 67%
- Effective Dose Bactericidal pH 5.6 P. aeruginosa Molar Concentration [1]: 3 × 10^-7 M
- Effective Dose Endotoxin Neutralization (Molar Concentration) [2]: 30 µM

Compound: CC[C@H](C)[C@@H]1NC(=O)[C@H](CCCCN)NC(=O)[C@@H](N)CSSC[C@@H](C(=O)O)NC(=O)[C@H](Cc2ccccc2)NC(=O)[C@H](CC(N)=O)NC(=O)CNC(=O)[C@H](CO)NC(=O)[C@H](CCSC)NC(=O)[C@H](CCCCN)NC(=O)[C@H](CC(C)C)NC(=O)[C@H](Cc2ccccc2)NC(=O)[C@H](CCCNC(=N)N)NC(=O)[C@H](CCCCN)NC(=O)[C@H](CCC(N)=O)NC(=O)[C@H](C)NC(=O)[C@H](CCCCN)NC(=O)[C@H](Cc2c[nH]c3ccccc23)NC(=O)[C@H](CCCCN)NC(=O)CNC(=O)[C@H](CO)NC1=O [cyclic 36] (H-CKISGKWKAQKRFLKMSGNFC-OH; disulfide 1-21)
- % Killing of 5 × 10^6 Bacteria ([1]; type 1, 1.5e-7 M): 76%

Compound: isnanikisg [Peptide 30]
- Effective Dose Bactericidal pH 5.6 P. aeruginosa Molar Concentration [1]: -- (not active at concentrations of 1.2 × 10^-4 M or less)
- Effective Dose Endotoxin Neutralization (Molar Concentration) [2]: 450 µM

Compound: kisgkwkaqk [Peptide 32]
- % Killing of 5 × 10^6 Bacteria ([1]; P. aeruginosa, 1.25 × 10^-4 M): 33%
- Effective Dose Bactericidal pH 5.6 P. aeruginosa Molar Concentration [1]: 1.25 × 10^-4 M
- Effective Dose Endotoxin Neutralization (Molar Concentration) [2]: 450 µM

Compound: qkrflkmsgn [Peptide 33]
- Effective Dose Bactericidal pH 5.6 P. aeruginosa Molar Concentration [1]: -- (not active at concentrations of 1.2 × 10^-4 M or less)
- Effective Dose Endotoxin Neutralization (Molar Concentration) [2]: 450 µM

Compound: anikisgkwk [Peptide 31]
- % Killing of 5 × 10^6 Bacteria ([1]; P. aeruginosa, 3.0 × 10^-5 M): 53%
- Effective Dose Bactericidal pH 5.6 P. aeruginosa Molar Concentration [1]: 3.0 × 10^-5 M
- Effective Dose Endotoxin Neutralization (Molar Concentration) [2]: 220 µM

Compound: msgnfdlsie [Peptide 29]
- Effective Dose Bactericidal pH 5.6 P. aeruginosa Molar Concentration [1]: -- (not active at concentrations of 1.2 × 10^-4 M or less)
- Effective Dose Endotoxin Neutralization (Molar Concentration) [2]: 220 µM

Compound: CC(C)C[C@@H]1NC(=O)[C@H](Cc2ccccc2)NC(=O)[C@H](CCCCN)NC(=O)[C@@H](NC(=O)[C@H](CCCCN)NC(=O)[C@@H](NC(=O)[C@@H](N)CCCCN)[C@@H](C)O)CSSC[C@@H](C(=O)O)NC(=O)[C@H](CCCCN)NC(=O)[C@H](CCCCN)NC1=O [cyclic 25, reference compound] (H-KTKCKFLKKC-OH; disulfide 4-10)
- % Killing of 5 × 10^6 Bacteria ([1]; type 1, 1.5e-5 M): 73%

Compound: flkmsgnfdl [Peptide 34]
- Effective Dose Bactericidal pH 5.6 P. aeruginosa Molar Concentration [1]: -- (not active at concentrations of 1.2 × 10^-4 M or less)
- Effective Dose Endotoxin Neutralization (Molar Concentration) [2]: 750 µM

Compound: kkkafrlakq [Peptide 28]
- % Killing of 5 × 10^6 Bacteria ([1]; P. aeruginosa, 3.0 × 10^-5 M): 68%
- Effective Dose Bactericidal pH 5.6 P. aeruginosa Molar Concentration [1]: 3.0 × 10^-5 M
- bacterial killing activity compared with parent peptide (in words) ([1]; P. aeruginosa): little or no effect
- Effective Dose Endotoxin Neutralization (Molar Concentration) [2]: -- (not active at concentrations of 4.5 × 10^-4 M or less)

Compound: kwkaqkrflkc [Peptide 20b]
- % Killing of 5 × 10^6 Bacteria ([1]; P. aeruginosa, 3.0 × 10^-6 M): 75%
- Effective Dose Bactericidal pH 5.6 P. aeruginosa Molar Concentration [1]: 3.0 × 10^-6 M
- Effective Dose Endotoxin Neutralization (Molar Concentration) [2]: -- (not active at concentrations of 4.5 × 10^-4 M or less)

Compound: CSCC[C@H](NC(=O)[C@H](CCCCN)NC(=O)[C@H](CC(C)C)NC(=O)[C@H](Cc1ccccc1)NC(=O)[C@H](CCCNC(=N)N)NC(=O)[C@H](CCCCN)NC(=O)[C@H](CCC(N)=O)NC(=O)[C@H](C)NC(=O)[C@H](CCCCN)NC(=O)[C@H](Cc1c[nH]c2ccccc12)NC(=O)[C@H](CCCCN)NC(=O)[C@@H](N)CS)C(=O)N[C@@H](CO)C(=O)NCC(=O)O [Peptide 9b, ckwkaqkrflkmsg]
- % Killing of 5 × 10^6 Bacteria ([1]; type 1, 1.5e-6 M): 96%

Compound: CC(C)C[C@@H]1NC(=O)[C@H](Cc2ccccc2)NC(=O)[C@H](CCCNC(=N)N)NC(=O)[C@H](CCCCN)NC(=O)[C@H](CCC(N)=O)NC(=O)[C@H](C)NC(=O)[C@H](CCCCN)NC(=O)[C@H](Cc2c[nH]c3ccccc23)NC(=O)[C@H](CCCCN)NC(=O)[C@@H](N)CSSC[C@@H](C(=O)O)NC(=O)[C@H](CCCCN)NC1=O [cyclic 20a]
- % Killing of 5 × 10^6 Bacteria ([1]; type 1, 3.0e-5 M): 89%

Compound: ckisgkwkaqkrflkmsgnfc [Peptide 36]
- % Killing of 5 × 10^6 Bacteria ([1]; P. aeruginosa, 1.2 × 10^-4 M): 39%
- Effective Dose Bactericidal pH 5.6 P. aeruginosa Molar Concentration [1]: 1.2 × 10^-4 M
- Effective Dose Endotoxin Neutralization (Molar Concentration) [2]: 750 µM

Compound: CSCC[C@H](NC(=O)[C@H](CCCCN)NC(=O)[C@H](CC(C)C)NC(=O)[C@H](Cc1ccccc1)NC(=O)[C@H](CCCNC(=N)N)NC(=O)[C@H](CCCCN)NC(=O)[C@H](CCC(N)=O)NC(=O)[C@H](C)NC(=O)[C@H](CCCCN)NC(=O)[C@H](Cc1c[nH]c2ccccc12)NC(=O)[C@@H](N)CCCCN)C(=O)N[C@@H](CO)C(=O)NCC(=O)O [Peptide 9a, kwkaqkrflkmsg]
- % Killing of 5 × 10^6 Bacteria ([1]; type 1, 6.0e-6 M): 67%

Compound: iktkkflkkt [Peptide 24, reference compound]
- % Killing of 5 × 10^6 Bacteria ([1]; P. aeruginosa, 3.0 × 10^-5 M): 72%
- Effective Dose Bactericidal pH 5.6 P. aeruginosa Molar Concentration [1]: 3.0 × 10^-5 M
- Effective Dose Endotoxin Neutralization (Molar Concentration) [2]: -- (not active at concentrations of 4.5 × 10^-4 M or less)

Compound: CC[C@H](C)[C@H](NC(=O)[C@H](CCCCN)NC(=O)[C@@H](N)CSSC[C@H](N)C(=O)N[C@@H](CCCCN)C(=O)N[C@H](C(=O)N[C@@H](CO)C(=O)NCC(=O)N[C@@H](CCCCN)C(=O)N[C@@H](Cc1c[nH]c2ccccc12)C(=O)N[C@@H](CCCCN)C(=O)N[C@@H](C)C(=O)N[C@@H](CCC(N)=O)C(=O)N[C@@H](CCCCN)C(=O)N[C@@H](CCCNC(=N)N)C(=O)N[C@@H](Cc1ccccc1)C(=O)N[C@@H](CC(C)C)C(=O)N[C@@H](CCCCN)C(=O)O)[C@@H](C)CC)C(=O)N[C@@H](CO)C(=O)NCC(=O)N[C@@H](CCCCN)C(=O)N[C@@H](Cc1c[nH]c2ccccc12)C(=O)N[C@@H](CCCCN)C(=O)N[C@@H](C)C(=O)N[C@@H](CCC(N)=O)C(=O)N[C@@H](CCCCN)C(=O)N[C@@H](CCCNC(=N)N)C(=O)N[C@@H](Cc1ccccc1)C(=O)N[C@@H](CC(C)C)C(=O)N[C@@H](CCCCN)C(=O)O [dimer 8b]
- % Killing of 5 × 10^6 Bacteria ([1]; type 1, 1.5e-6 M): 52%

Compound: CC[C@H](C)[C@H](NC(=O)[C@H](CCCCN)NC(=O)[C@@H](N)CS)C(=O)N[C@@H](CO)C(=O)NCC(=O)N[C@@H](CCCCN)C(=O)N[C@@H](Cc1c[nH]c2ccccc12)C(=O)N[C@@H](CCCCN)C(=O)N[C@@H](C)C(=O)N[C@@H](CCC(N)=O)C(=O)N[C@@H](CCCCN)C(=O)N[C@@H](CCCNC(=N)N)C(=O)N[C@@H](Cc1ccccc1)C(=O)N[C@@H](CC(C)C)C(=O)N[C@@H](CCCCN)C(=O)O [Peptide 8b, ckisgkwkaqkrflk]
- % Killing of 5 × 10^6 Bacteria ([1]; type 1, 1.5e-6 M): 88%
